Our source for the Kd values is ChEMBL document CHEMBL1153583, “Organocatalytic synthesis and sterol 14alpha-demethylase binding interactions of enantioriched 3-(1H-1,2,4-triazol-1-yl)butyl benzoates” (Bioorg Med Chem Lett, 2009).

SMILES strings stand for the structures.

A short description of this assay: Binding affinity to Penicillium digitatum CYP51 expressed in Escherichia coli by UV-visible spectrophotometry.
`Cc1ccc(C(=O)OCC[C@@H](C)n2cncn2)cc1` had a Kd of 338 nM.
`C[C@@H](CCOC(=O)c1ccc(Cl)cc1Cl)n1cncn1` gave a dissociation constant (Kd) of 452 nM.
The molecule `CC(CCOC(=O)c1ccc(Cl)cc1)n1cncn1` (racemic) returned a Kd of 1380 nM.
The same measure for `C[C@@H](CCOC(=O)c1cccc(Cl)c1)n1cncn1`: 472 nM; for `CC(C)(C)C(O)/C(=C/c1ccc(Cl)cc1Cl)n1cncn1` (centres undefined) [DINICONAZOLE]: 247 nM.
Next, `C[C@H](CCOC(=O)c1cccc(Cl)c1)n1cncn1`: 2360 nM; `Cc1ccc(C(=O)OCCC(C)n2cncn2)cc1` (racemic): 1740 nM; `C[C@H](CCOC(=O)c1ccccc1Cl)n1cncn1`: 580 nM.
Next, `CC(C)(C)C(=O)C(Oc1ccc(Cl)cc1)n1cncn1` (centres undefined) [TRIADIMEFON]: 936 nM; `CC(CCOC(=O)c1ccccc1Cl)n1cncn1` (racemic): 1120 nM; `CC(CCOC(=O)c1ccc(Cl)cc1Cl)n1cncn1` (racemic): 973 nM.
As to `Cc1ccc(C(=O)OCC[C@H](C)n2cncn2)cc1`, the equilibrium dissociation constant (Kd) was 10500 nM.
Next, `CC(CCOC(=O)c1ccccc1)n1cncn1` (racemic): 1180 nM; `C[C@@H](CCOC(=O)c1ccccc1Cl)n1cncn1`: 560 nM.
For the molecule `C[C@@H](CCOC(=O)c1ccc(Cl)cc1)n1cncn1`, the Kd amounted to 988 nM.
Next, `C[C@@H](CCOC(=O)c1ccccc1)n1cncn1`: 1420 nM; `CC(CCOC(=O)c1cccc(Cl)c1)n1cncn1` (racemic): 743 nM; `C[C@H](CCOC(=O)c1ccccc1)n1cncn1`: 1620 nM.
On to `C[C@H](CCOC(=O)c1ccc(Cl)cc1)n1cncn1`, for which the dissociation constant Kd worked out at 682 nM.

A word on the Kd: it is the equilibrium constant for the complex coming apart. Read a low Kd as higher affinity.
